Results taken from US20260256909A1, “COMBINATION OF A BTN3A ACTIVATING ANTIBODY, A BCL2 INHIBITOR AND HYPOMETHYLATING AGENT FOR USE IN TREATING CANCER” (Imcheck Therapeutics, priority 2022, published 2026).

Assays:
Assay type in all cases: cell-based, human
Vγ9Vδ2 T cells [1] = experiment: Proliferation of Vγ9Vδ2 T cells in HD-PBMC (CellTrace Violet); conditions: day 4, ICT01 1 μg/mL; for ICT01 and IL2-induced proliferation of Vγ9Vδ2 T cells: 50 IU/mL IL2; for increase of ICT01-induced proliferation of Vγ9Vδ2 T cells: absence of IL2
Description: Finally, freshly isolated human PBMC from healthy donors (HD, n=6) were labeled with CellTrace Violet stain (CTV, Invitrogen) to determine cell proliferation upon treatment with ICT01 or its isotype control (hIgG1S) used at 1 μg/mL in the presence or absence of increasing concentrations of Venetoclax (0-0.1 μM), 5-Azacytidine (0-0.4 μM) or the combination in PBMC medium (RPMI 1640 Medium supplemented with 10% FBS, 1% Penicillin/Streptomycin and 1 mM Sodium Pyruvate). Half of the cells were additionally treated with 50 IU/mL IL2. Cells were harvested on day 4, centrifuged at 1800 rpm for 5 minutes and then incubated 10 minutes at RT with 25 μl of FcR blocking reagent (Miltenyi Biotec) before adding 25 μL of the following antibody mix prepared in PBS+2% FBS+2 mM EDTA (FACS buffer): anti-CD4-BV650, CD56-FITC, Vδ2-PE, CD3-PE-CF594 and CD8-A700 antibodies for the identification of immune subsets, and a viability marker (LIVE/DEAD™ Fixable Dead Cell Stain) was added to distinguish live from dead cells. Cells were incubated 20 minutes at 4° C. and washed 2 times in FACS buffer before flow cytometry analysis.

KG1a AML cell line = experiment: Sensitivity of KG1a AML cell line (Cell Titer Glo luminescence); conditions: for EC50: Homo sapiens, KG-1a, 48 h, 2 days treatment, luminescence, read-out: EC50 on KG1a AML cells; for mean survival of KG1a AML cells: Venetoclax at 5 μM and/or 5-Azacytidine at 10 μM, 2 days
Description: First, to assess the sensitivity of KG1a AML cell line to Venetoclax and 5-Azacytidine treatment in vitro, cells were treated with increasing concentrations of Venetoclax (0-5 μM), 5-Azacytidine (0-10 μM) or the combination for 2 days in cell culture medium (alpha-MEM+Glutamax supplemented with 20% Fetal Bovine Serum (FBS) and 1 mM Sodium Pyruvate). On day 2, cells were centrifuged at 1800 rpm for 5 minutes and the supernatant discarded. Cells were lysed with Cell Titer Glo reagent (Promega), and ATP amount was monitored as a measure of living cells using luminescence.

Vγ9Vδ2 T cells [2] = experiment: ICT01-induced IFNγ production by Vγ9Vδ2 T cells in HD-PBMC (intracellular staining); conditions: for effect on ICT01-induced IFNγ production by Vγ9Vδ2 T cells: single agent, independent of IL2
Description: To evaluate the effect of Venetoclax and 5-Azacytidine on cytokine production, freshly isolated human PBMC from healthy donors (HD, n=6) were cultured in PBMC medium (RPMI 1640 Medium supplemented with 10% Fetal Bovine Serum (FBS), 1% Penicillin/Streptomycin and 1 mM Sodium Pyruvate) and treated with ICT01 or its isotype control (hIgG1S) used at 1 μg/mL in the presence or absence of increasing concentrations of Venetoclax (0-0.1 μM), 5-Azacytidine (0-0.4 μM) or the combination. Half of the cells were additionally treated with 50 IU/mL IL2. Golgi Stop was added after 6-8 hours of co-culture and cells were harvested 16 h later, centrifuged at 1800 rpm for 5 minutes and then incubated 10 minutes at room temperature (RT) with 25 μl of FcR blocking reagent (Miltenyi Biotec) before adding 25 μL of the following antibody mix prepared in PBS+2% FBS+2 mM EDTA (FACS buffer): anti-CD4-BV650, Vγ9-FITC, CD3-PE-CF594, CD56-PE-Vio770 and CD8-AF700 antibodies for the identification of immune subsets, and a viability marker (LIVE/DEAD™ Fixable Dead Cell Stain) was added to distinguish live from dead cells. After 20 minutes, 100 μL of CytoFix solution (BD Bioscience) was added, and cells were incubated for 20 minutes at 4° C. 100 μL of Perm/Wash (BD Bioscience) were added, cells centrifuged and washed once in 200 μL Perm/Wash. After washing, cells were stained with anti-IFNγ-APC antibody for 30 minutes at 4° C., washed twice with Perm/Wash, and analyzed by flow cytometry.

MOLM14 cells = experiment: Killing of MOLM14 AML cells in co-culture with HD-PBMC (flow cytometry); conditions: ICT01 0.1 μg/mL, HD-PBMC ratio 5:1, 2 days
Description: KG1a or MOLM14 AML cell lines were co-cultured with HD-PBMC at ratio 5:1 in presence of ICT01 or isotype control (0.1 μg/mL). After 6 hrs, indicated concentrations of ABT-737, Navitoclax or MIK665 were added to the culture. A) Relative numbers of live KG1a cells (Mean±SEM) after 2 days of co-culture with HD-PBMC in presence of ICT01 (black) or its isotype control hIgG1S (light grey) and treatment with indicated concentration of ABT-737. B) Relative numbers of live KG1a cells (Mean±SEM) after 2 days of co-culture with HD-PBMC in presence of ICT01 (black) or its isotype control hIgG1S (light grey) and treatment with indicated concentration of Navitoclax. C) Relative numbers of live MOLM14 cells (Mean±SEM) after 2 days of co-culture with HD-PBMC in presence of ICT01 (black) or its isotype control hIgG1S (light grey) and treatment with indicated concentration of MIK665. N=6 HD, each dot represents one healthy donor, * p<0.05, 2 way ANOVA.
The effect of the three Bcl-2 family member inhibitors ABT-737, Navitoclax and MIK665, on ICT01-induced killing of AML cell lines by Vγ9Vδ2 T cells was assessed by measuring the relative number of surviving target cells in a HD-PBMC-AML cells co-culture using flow cytometry.
For assays using ABT-737 or Navitoclax, KG1a cells were used. […] Therefore, MOLM14 cells, which express MCL-1, were used in killing assays assessing the activity of ICT01 combined with MIK665.

[3] = system: JVM-2 (Chronic B-cell leukemia); experiment: Killing of JVM-2 cells in co-culture with HD-PBMC (flow cytometry); conditions: co-culture with HD-PBMC ratio 5:1, 48 hrs
Description: (§1) Raji cells (Burkitt Lymphoma) or JVM2 cells (Chronic-B cell Leukemia) were co-cultured with HD-PBMC at ratio 5:1 in presence of ICT01 or isotype control (0.1 μg/mL or 1 μg/mL). After 6 hrs, indicated concentrations of Venetoclax, 5-Azacytidine or the combination were added to the culture. Relative numbers of live Raji (A) or JVM2 (B) were monitored after 48 hrs by flow cytometry. […] N=6, each dot represents one healthy donor, * p<0.05, ** p<0.01, 2 way ANOVA.
(§2) The effect of Venetoclax and 5-Azacytidine on BTN3A activating antibody-induced killing of Burkitt Lymphoma and Chronic-B-cell leukemia cell lines by Vγ9Vδ2 T cells was assessed by measuring the relative number of surviving target cells in a HD-PBMC-Target cell co-culture using flow cytometry.

Raji (Burkitts Lymphoma) = experiment: Killing of Raji cells in co-culture with HD-PBMC (flow cytometry); conditions: co-culture with HD-PBMC ratio 5:1, 48 hrs
Description: as §1, §2

Compound	ICT01 and IL2-induced proliferation of Vγ9Vδ2 T cells (Vγ9Vδ2 T cells [1])	increase of ICT01-induced proliferation of Vγ9Vδ2 T cells (Vγ9Vδ2 T cells [1])	EC50 (KG1a AML cell line) [µM]	mean survival of KG1a AML cells (KG1a AML cell line) [%]	effect on ICT01-induced IFNγ production by Vγ9Vδ2 T cells (Vγ9Vδ2 T cells [2])	MOLM14 cell death as compared to control condition (MOLM14 cells)	decrease of live JVM-2 cells as compared to hIgG1S alone condition (control) [3]	decrease of live Raji cells as compared to hIgG1S alone condition (control) (Raji (Burkitts Lymphoma))	IFNγ production by Vγ9Vδ2 T cells (Vγ9Vδ2 T cells [2]; HD-PBMC activated with ICT01 (1 μg/mL) in presence of IL2 (50 IU/mL)) [%]	IFNγ production by Vγ9Vδ2 T cells (Vγ9Vδ2 T cells [2]; HD-PBMC activated with ICT01 alone (1 μg/mL), no IL2) [%]
Nc1ncn([C@@H]2O[C@H](CO)[C@@H](O)[C@H]2O)c(=O)n1 [5-Azacytidine, 4-amino-1-[(2R,3R,4S,5R)3,4-dihydroxy-5-(hydroxymethyl)oxolan-2-yl]-1,3,5-triazin-2-one]	unaffected	not observed	4.72	47.2	no effect					
CC1(C)CCC(CN2CCN(c3ccc(C(=O)NS(=O)(=O)c4ccc(NCC5CCOCC5)c([N+](=O)[O-])c4)c(Oc4cnc5[nH]ccc5c4)c3)CC2)=C(c2ccc(Cl)cc2)C1 [Venetoclax, 4-[4-[[2-(4-chlorophenyl)-4,4-dimethylcyclohexen-1-yl]methyl]piperazin-1-yl]-N-[3-nitro-4-(oxan-4-ylmethylamino)phenyl]sulfonyl-2-(1H-pyrrolo[2,3-b]pyridin-5-yloxy)benzamide]	unaffected	~ 10%	1.82	20.2	no effect					
ICT01: humanized BTN3A activating antibody of mAb 7.2, heavy chain SEQ ID NO: 4, light chain SEQ ID NO: 6, silent IgG1 L247F/L248E/P350S						~ 56%	~ 16%	~ 22%	89.1	30.4
